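How tested: cells in 96-well plates exposed to compound for 48 hours at five concentrations. Here, GI50 denotes the concentration required for 50% inhibition of growth. TGI is the concentration that stops growth completely.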
Test system: HOP-62 NSCLC
Assay: DTP human tumour cell line panel, 48 h

Structure (SMILES) | GI50 [µM] | TGI [µM]
COC(=O)c1cc2oc(/C=C3/SC(=S)N(NC(C)=O)C3=O)cc2n1C | 21.7 | 47.3
CC1(C)[C@@H](NOCCCN)CC[C@]2(C)[C@H]3C(=O)C=C4[C@@H]5C[C@](C)(C(=O)O)CC[C@]5(C)CC[C@@]4(C)[C@]3(C)CC[C@@H]12 | 13.5 | 48.4
Oc1ccc(NCn2c(=S)sc3ccccc32)cc1 |  | > 100
O=C1NC(=NCc2ccccc2)S/C1=C\c1ccc2ncccc2c1 | > 25 | > 25

Test system: HOP-92 NSCLC
Assay: DTP human tumour cell line panel, 48 h

Structure (SMILES) | GI50 [µM] | TGI [µM]
COC(=O)c1cc2oc(/C=C3/SC(=S)N(NC(C)=O)C3=O)cc2n1C | 19.6 | 44.5
CC1(C)[C@@H](NOCCCN)CC[C@]2(C)[C@H]3C(=O)C=C4[C@@H]5C[C@](C)(C(=O)O)CC[C@]5(C)CC[C@@]4(C)[C@]3(C)CC[C@@H]12 | 2.38 | 12.3
Oc1ccc(NCn2c(=S)sc3ccccc32)cc1 |  | > 100
O=C1NC(=NCc2ccccc2)S/C1=C\c1ccc2ncccc2c1 | > 25 | > 25

Test system: HS 578T breast
Assay: DTP human tumour cell line panel, 48 h

Structure (SMILES) | GI50 [µM] | TGI [µM]
COC(=O)c1cc2oc(/C=C3/SC(=S)N(NC(C)=O)C3=O)cc2n1C | 15.2 | 59.2
CC1(C)[C@@H](NOCCCN)CC[C@]2(C)[C@H]3C(=O)C=C4[C@@H]5C[C@](C)(C(=O)O)CC[C@]5(C)CC[C@@]4(C)[C@]3(C)CC[C@@H]12 | 4.23 | 50
Oc1ccc(NCn2c(=S)sc3ccccc32)cc1 |  | > 100
O=C1NC(=NCc2ccccc2)S/C1=C\c1ccc2ncccc2c1 | > 25 | > 25

Test system: HT29 colon
Assay: DTP human tumour cell line panel, 48 h

Structure (SMILES) | GI50 [µM] | TGI [µM]
COC(=O)c1cc2oc(/C=C3/SC(=S)N(NC(C)=O)C3=O)cc2n1C | 27.2 | > 100
CC1(C)[C@@H](NOCCCN)CC[C@]2(C)[C@H]3C(=O)C=C4[C@@H]5C[C@](C)(C(=O)O)CC[C@]5(C)CC[C@@]4(C)[C@]3(C)CC[C@@H]12 | 3.45 | 16.1
Oc1ccc(NCn2c(=S)sc3ccccc32)cc1 |  | > 100
O=C1NC(=NCc2ccccc2)S/C1=C\c1ccc2ncccc2c1 | > 25 | > 25

Test system: IGROV1 ovarian
Assay: DTP human tumour cell line panel, 48 h

Structure (SMILES) | GI50 [µM] | TGI [µM]
COC(=O)c1cc2oc(/C=C3/SC(=S)N(NC(C)=O)C3=O)cc2n1C | 23.3 | > 100
CC1(C)[C@@H](NOCCCN)CC[C@]2(C)[C@H]3C(=O)C=C4[C@@H]5C[C@](C)(C(=O)O)CC[C@]5(C)CC[C@@]4(C)[C@]3(C)CC[C@@H]12 | 12.2 | 24.6
Oc1ccc(NCn2c(=S)sc3ccccc32)cc1 |  | > 100
O=C1NC(=NCc2ccccc2)S/C1=C\c1ccc2ncccc2c1 | > 25 | > 25

Test system: K-562 leukemia
Assay: DTP human tumour cell line panel, 48 h

Structure (SMILES) | GI50 [µM] | TGI [µM]
COC(=O)c1cc2oc(/C=C3/SC(=S)N(NC(C)=O)C3=O)cc2n1C | 24.7 | > 100
CC1(C)[C@@H](NOCCCN)CC[C@]2(C)[C@H]3C(=O)C=C4[C@@H]5C[C@](C)(C(=O)O)CC[C@]5(C)CC[C@@]4(C)[C@]3(C)CC[C@@H]12 | 2.57 | 12.1
Oc1ccc(NCn2c(=S)sc3ccccc32)cc1 |  | > 100
O=C1NC(=NCc2ccccc2)S/C1=C\c1ccc2ncccc2c1 | > 25 | > 25

Test system: KM12 colon
Assay: DTP human tumour cell line panel, 48 h

Structure (SMILES) | GI50 [µM] | TGI [µM]
COC(=O)c1cc2oc(/C=C3/SC(=S)N(NC(C)=O)C3=O)cc2n1C | 26.4 | > 100
CC1(C)[C@@H](NOCCCN)CC[C@]2(C)[C@H]3C(=O)C=C4[C@@H]5C[C@](C)(C(=O)O)CC[C@]5(C)CC[C@@]4(C)[C@]3(C)CC[C@@H]12 | 3.27 | 12.6
Oc1ccc(NCn2c(=S)sc3ccccc32)cc1 |  | > 100
O=C1NC(=NCc2ccccc2)S/C1=C\c1ccc2ncccc2c1 | > 25 | > 25

Test system: LOX IMVI melanoma
Assay: DTP human tumour cell line panel, 48 h

Structure (SMILES) | GI50 [µM] | TGI [µM]
COC(=O)c1cc2oc(/C=C3/SC(=S)N(NC(C)=O)C3=O)cc2n1C | 11.1 | 27.9
Oc1ccc(NCn2c(=S)sc3ccccc32)cc1 |  | > 100
O=C1NC(=NCc2ccccc2)S/C1=C\c1ccc2ncccc2c1 | > 25 | > 25

Test system: M14 melanoma
Assay: DTP human tumour cell line panel, 48 h

Structure (SMILES) | GI50 [µM] | TGI [µM]
COC(=O)c1cc2oc(/C=C3/SC(=S)N(NC(C)=O)C3=O)cc2n1C | 10.8 | 31.8
CC1(C)[C@@H](NOCCCN)CC[C@]2(C)[C@H]3C(=O)C=C4[C@@H]5C[C@](C)(C(=O)O)CC[C@]5(C)CC[C@@]4(C)[C@]3(C)CC[C@@H]12 | 8.46 | 28.8
Oc1ccc(NCn2c(=S)sc3ccccc32)cc1 |  | > 100
O=C1NC(=NCc2ccccc2)S/C1=C\c1ccc2ncccc2c1 | > 25 | > 25

Test system: MALME-3M melanoma
Assay: DTP human tumour cell line panel, 48 h

Structure (SMILES) | GI50 [µM] | TGI [µM]
COC(=O)c1cc2oc(/C=C3/SC(=S)N(NC(C)=O)C3=O)cc2n1C | 10.8 | 52
CC1(C)[C@@H](NOCCCN)CC[C@]2(C)[C@H]3C(=O)C=C4[C@@H]5C[C@](C)(C(=O)O)CC[C@]5(C)CC[C@@]4(C)[C@]3(C)CC[C@@H]12 | 4.56 | 16.9
Oc1ccc(NCn2c(=S)sc3ccccc32)cc1 |  | > 100
O=C1NC(=NCc2ccccc2)S/C1=C\c1ccc2ncccc2c1 | > 25 | > 25

Test system: MCF7 breast
Assay: DTP human tumour cell line panel, 48 h

Structure (SMILES) | GI50 [µM] | TGI [µM]
COC(=O)c1cc2oc(/C=C3/SC(=S)N(NC(C)=O)C3=O)cc2n1C | 11.6 | > 100
CC1(C)[C@@H](NOCCCN)CC[C@]2(C)[C@H]3C(=O)C=C4[C@@H]5C[C@](C)(C(=O)O)CC[C@]5(C)CC[C@@]4(C)[C@]3(C)CC[C@@H]12 | 4.09 | 17.1
Oc1ccc(NCn2c(=S)sc3ccccc32)cc1 |  | > 100
O=C1NC(=NCc2ccccc2)S/C1=C\c1ccc2ncccc2c1 | > 25 | > 25

Test system: MDA-MB-231 breast
Assay: DTP human tumour cell line panel, 48 h

Structure (SMILES) | GI50 [µM] | TGI [µM]
COC(=O)c1cc2oc(/C=C3/SC(=S)N(NC(C)=O)C3=O)cc2n1C | 21.5 | 53.2
CC1(C)[C@@H](NOCCCN)CC[C@]2(C)[C@H]3C(=O)C=C4[C@@H]5C[C@](C)(C(=O)O)CC[C@]5(C)CC[C@@]4(C)[C@]3(C)CC[C@@H]12 | 8.57 | 22.1
Oc1ccc(NCn2c(=S)sc3ccccc32)cc1 |  | > 100
O=C1NC(=NCc2ccccc2)S/C1=C\c1ccc2ncccc2c1 | > 25 | > 25

Test system: MDA-MB-435
Assay: DTP human tumour cell line panel, 48 h

Structure (SMILES) | GI50 [µM] | TGI [µM]
COC(=O)c1cc2oc(/C=C3/SC(=S)N(NC(C)=O)C3=O)cc2n1C | 17.6 | > 100
CC1(C)[C@@H](NOCCCN)CC[C@]2(C)[C@H]3C(=O)C=C4[C@@H]5C[C@](C)(C(=O)O)CC[C@]5(C)CC[C@@]4(C)[C@]3(C)CC[C@@H]12 | 6.08 | 23.6
Oc1ccc(NCn2c(=S)sc3ccccc32)cc1 |  | > 100
O=C1NC(=NCc2ccccc2)S/C1=C\c1ccc2ncccc2c1 | > 25 | > 25

Test system: MOLT-4 leukemia
Assay: DTP human tumour cell line panel, 48 h

Structure (SMILES) | GI50 [µM] | TGI [µM]
COC(=O)c1cc2oc(/C=C3/SC(=S)N(NC(C)=O)C3=O)cc2n1C | 11.3 | 62.1
CC1(C)[C@@H](NOCCCN)CC[C@]2(C)[C@H]3C(=O)C=C4[C@@H]5C[C@](C)(C(=O)O)CC[C@]5(C)CC[C@@]4(C)[C@]3(C)CC[C@@H]12 | 4.63 | 43
Oc1ccc(NCn2c(=S)sc3ccccc32)cc1 |  | > 100
O=C1NC(=NCc2ccccc2)S/C1=C\c1ccc2ncccc2c1 | > 25 | > 25

Test system: NCI-H226 lung
Assay: DTP human tumour cell line panel, 48 h

Structure (SMILES) | GI50 [µM] | TGI [µM]
COC(=O)c1cc2oc(/C=C3/SC(=S)N(NC(C)=O)C3=O)cc2n1C | 21.5 | 51.7
CC1(C)[C@@H](NOCCCN)CC[C@]2(C)[C@H]3C(=O)C=C4[C@@H]5C[C@](C)(C(=O)O)CC[C@]5(C)CC[C@@]4(C)[C@]3(C)CC[C@@H]12 | 5.46 | 19.2
O=C1NC(=NCc2ccccc2)S/C1=C\c1ccc2ncccc2c1 | > 25 | > 25

— PubChem BioAssay (NCI)
